Measurements from patent US4472392A, “Sulfonate containing ester prodrugs of corticosteroids” (The Upjohn Company, priority 1983, dated 1984).
Structures can show the parent of a compound that is named as a salt.

Columns and labels:
[1] = Estimated t90% (time for 10% hydrolysis) in dilute aqueous solution at 25° C; type: physicochemical; conditions: extrapolated from rate constants at pH 2 and 8 (0.01 ionic strength buffers) to the pH at which hydrolysis is a minimum
Experimental: The solution stability of the compounds of Formula I varies to some extent depending on the nature of X and Y and the values for m and n. Shown in Table I are estimates of t90% (time for 10% hydrolysis) of various derivatives in dilute aqueous solutions at 25° C. These estimates are based on an extrapolation of the rate constants for acid and base catalyzed hydrolysis to the pH at which hydrolysis is a minimum. The rate constants for acid and base catalyzed hydrolysis were determined at pH 2 and 8, respectively, in 0.01 ionic strength buffers.

[2] = Base catalyzed hydrolysis rate in concentrated versus dilute solution; type: physicochemical; conditions: 0.11M solution versus 5×10^-4 M solution
Excerpt: The actual shelf-life of formulations of the above compounds would be expected to differ from the above estimates for two reasons: (1) The solubility of the parent corticosteroid formed on hydrolysis may be exceeded prior to 10% degradation of the ester. Micelle formation by the intact prodrugs of Formula I results in solubilization of free corticosteroid thereby prolonging shelf-life. […]. The degree of solubilization varies with the ester concentration, nature of the pro-moiety, and the structure of the corticosteroid. (2) Micelle formation by the intact prodrug in concentrated solutions results in stabilization of the ester linkage toward base catalyzed hydrolysis. For example, the base catalyzed hydrolysis rate in a 0.11M solution of the compound of Example 1 is less than one-half the rate in a 5×10^-4 M solution.

[3] = M. Kawamura et al., Yakugaku Zasshi, 91, 871 (1971); cited from earlier work

SMILES	Estimated t90% (time for 10% hydrolysis) [1] [years]	base catalyzed hydrolysis rate relative to the rate in dilute solution [2]	activity in mice [3]
C[C@H]1C[C@@H]2[C@H]([C@@H](O)C[C@@]3(C)[C@H]2CC[C@]3(O)C(=O)COC(=O)CCCCCCC(=O)N(C)CCS(=O)(=O)O)[C@@]2(C)C=CC(=O)C=C12 [Example 3, N-Methyltaurine amide of methylprednisolone 21-hemisuberate (Na salt)]	4.1	–	–
C[C@H]1C[C@@H]2[C@H]([C@@H](O)C[C@@]3(C)[C@H]2CC[C@]3(O)C(=O)COC(=O)CCC(=O)N(C)CCS(=O)(=O)O)[C@@]2(C)C=CC(=O)C=C12 [Example 1, N-Methyl taurine amide of methylprednisolone 21-hemisuccinate (Na salt)]	3.9	less than one-half	–
C[C@]12CCC(=O)C=C1CC[C@@H]1[C@@H]2[C@@H](O)C[C@@]2(C)[C@H]1CC[C@]2(O)C(=O)COS(=O)(=O)O [21-sulfate of hydrocortisone]	–	–	inactive
C[C@H]1C[C@@H]2[C@H]([C@@H](O)C[C@@]3(C)[C@H]2CC[C@]3(O)C(=O)COC(=O)CCCCCCC(=O)NCCS(=O)(=O)O)[C@@]2(C)C=CC(=O)C=C12 [Example 2, Taurine amide of methylprednisolone 21-suberate (Na salt)]	3.9	–	–
